Assay results from patent publication US9283234B2, “Compositions and methods for suppressing endometrial proliferation” (REPROS THERAPEUTICS INC., priority 2006, dated 2016).

What was measured:
[1] = molecular target: T1, glucocorticoid receptor (rbGR) (Oryctolagus cuniculus, UniProt P59667); experiment: glucocorticoid receptor binding; parameters: species or system rabbit
T1 construct: cytosol containing PR or GR were prepared in TEGMD buffer; from tissue; host or cells: thymus of estradiol-primed immature rabbits (cytosol)
T1 sequence (P59667 1-772): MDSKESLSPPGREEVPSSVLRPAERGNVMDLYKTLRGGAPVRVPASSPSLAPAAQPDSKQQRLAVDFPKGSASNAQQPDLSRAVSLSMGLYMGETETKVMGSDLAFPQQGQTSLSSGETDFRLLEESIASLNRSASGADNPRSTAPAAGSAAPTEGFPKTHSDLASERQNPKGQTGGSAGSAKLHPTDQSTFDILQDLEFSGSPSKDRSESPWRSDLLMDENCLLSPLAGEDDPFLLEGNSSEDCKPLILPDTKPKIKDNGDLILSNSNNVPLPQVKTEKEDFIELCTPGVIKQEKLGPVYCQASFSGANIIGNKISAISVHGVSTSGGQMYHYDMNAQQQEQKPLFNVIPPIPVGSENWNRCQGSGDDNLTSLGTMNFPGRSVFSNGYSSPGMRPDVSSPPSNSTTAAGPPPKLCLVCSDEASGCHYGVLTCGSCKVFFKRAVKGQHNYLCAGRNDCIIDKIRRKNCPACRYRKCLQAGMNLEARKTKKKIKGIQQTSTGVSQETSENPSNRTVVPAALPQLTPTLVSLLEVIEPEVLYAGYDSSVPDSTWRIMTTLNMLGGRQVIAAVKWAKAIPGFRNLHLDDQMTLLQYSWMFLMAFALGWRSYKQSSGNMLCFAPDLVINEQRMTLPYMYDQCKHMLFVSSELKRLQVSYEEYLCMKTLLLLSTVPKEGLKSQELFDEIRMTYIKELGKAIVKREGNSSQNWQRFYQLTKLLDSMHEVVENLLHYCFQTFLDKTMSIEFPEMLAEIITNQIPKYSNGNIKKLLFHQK
Procedure: Certain antiprogestins were tested in receptor-binding assays for their ability to bind rabbit progesterone receptor (rbPR) and glucocorticoid receptor (rbGR). […] For PR binding, the cytosol was incubated with 6 nM 1,2-[^3H]progesterone (50.0 Ci/mmole) and competitors were added at concentrations from 2 to 100 nM. For binding to GR, the cytosol was incubated with 6 nM 6,7-[^3H]-dexamethasone (40 Ci/mmol) and test compounds were added at concentrations from 20 to 100 nM. After overnight incubation at 4 C, bound and unbound [^3H] steroids were separated by addition of dextran-coated charcoal and centrifugation at 2100×g for 15 min at 4 C. Supernatants containing the [^3H]-steroid receptor complexes were decanted into vials containing 4 ml OPTIFLUOR scintillation fluid (Packard Instrument Co.), vortexed, equilibrated in a liquid scintillation counter for 30 minutes and then counted for 2 minutes. […] The standards for the PR and GR assays were unlabeled progesterone and dexamethasone, respectively.

[2] = Measuring serum cortisol in rats; assay type: in vivo; details: 10 mg/kg, 21 days of chronic dosing, FIG. 1
[3] = estrogenic, androgenic, anti-estrogenic and anti-androgenic activities
Text: These methods include receptor binding and in vivo bioassays such as anti-McGinty, anti-Clauberg, glucocorticoid, estrogenic, androgenic, anti-glucocorticoid (AG), anti-estrogen, and anti-androgen activities as well as post-coital and anti-ovulatory activities where in the leading compounds of the instant invention are used as a reference.

[4] = test system: rabbit progesterone receptor (rbPR) and glucocorticoid receptor (rbGR); experiment: Receptor-binding assays, ratio of relative binding affinities rbPR/rbGR; details: ratio of relative binding affinities (RBA = EC50 of standard/EC50 of test compound x100) for rbPR and rbGR; standards progesterone, dexamethasone
Procedure: Certain antiprogestins were tested in receptor-binding assays for their ability to bind rabbit progesterone receptor (rbPR) and glucocorticoid receptor (rbGR). Briefly, cytosol containing PR or GR were prepared in TEGMD buffer (10 mM Tris, pH 7.2, 1.5 mM EDTA, 0.2 mM sodium molybdate, 10% glycerol, 1 mM DTT) from uterus or thymus, respectively, of estradiol-primed immature rabbits. For PR binding, the cytosol was incubated with 6 nM 1,2-[^3H]progesterone (50.0 Ci/mmole) and competitors were added at concentrations from 2 to 100 nM. For binding to GR, the cytosol was incubated with 6 nM 6,7-[^3H]-dexamethasone (40 Ci/mmol) and test compounds were added at concentrations from 20 to 100 nM. After overnight incubation at 4 C, bound and unbound [^3H] steroids were separated by addition of dextran-coated charcoal and centrifugation at 2100×g for 15 min at 4 C. Supernatants containing the [^3H]-steroid receptor complexes were decanted into vials containing 4 ml OPTIFLUOR scintillation fluid (Packard Instrument Co.), vortexed, equilibrated in a liquid scintillation counter for 30 minutes and then counted for 2 minutes. The EC50 (Effective Concentration) for each standard curve and each of the compound curves was determined by entering the counting data into a four parameter sigmoidal computer program ([…] Immunoassay Data Reduction Program, Packard Instrument Co., Meriden, Conn.). Relative binding affinity (RBA) for each compound was calculated using the following equation: EC50 of standard/EC50 of test compound×100. The standards for the PR and GR assays were unlabeled progesterone and dexamethasone, respectively. The results of these experiments are summarized in Table 1, as a ratio of the relative binding affinities of each compound for the rbPR and rbGR receptors (rbPR/rbGR).

rabbit uterus = experiment: anti-McGinty and anti-Clauberg assays; assay type: in vivo; details: average of anti-McGinty and anti-Clauberg results relative to CDB-2914 (=1.00)
Text: Also given in Table 1 are the relative biological activities of the same compounds in the rabbit uterus by the anti-McGinty and anti-Clauberg assays. Compound CDB-2914 (listed at the end of the Table) was used as the control or reference compound (rabbit Biological Activity=1.00) for these experiments because results of experiments using CDB-2914 have been published before (Hild-Petito et al., 1996; Passaro et al., 1997; Reel et al., 1998; Larner et al., 2000). For the anti-McGinty test, immature female rabbits received a subcutaneous injection of 5 μg estradiol in 10% ethanol/sesame oil daily for 6 consecutive days. On day 7, animals underwent sterile abdominal surgery to ligate a 3-4 cm segment of both uterine horns. The test compound in appropriate solvent was injected intraluminally into the ligated segment of one uterine horn and vehicle alone into the other. A stimulating dose of progesterone (267 μg/day) was administered subcutaneously to each rabbit daily for the next three days to induce endometrial proliferation. All animals were sacrificed at day 10 for removal of the uterus where a segment central to the ligatures was removed and fixed in 10% neutral buffered formalin and submitted for histological processing. Five micron sections stained with hematoxylin and cosin were evaluated microscopically for the degree of endometrial glandular proliferation. The percent inhibition of endometrial proliferation for each rabbit was calculated and the mean of the group of five animals recorded. For the Anti-Clauberg test, immature female rabbits received a subcutaneous injection of 5 μg estradiol in 10% ethanol/sesame oil daily for 6 consecutive days. On day 7, animals received progesterone by subcutaneous injection (160 μg/day) and the experimental compound in appropriate vehicle orally or subcutaneously for five consecutive days. One group of rabbits received progesterone only. […] Five micron sections stained with hematoxylin and eosin were evaluated microscopically for the degree of endometrial glandular proliferation. […]

[5] = Measuring serum corticosterone in rats; details: progesterone, CDB-4124 and RU-486 groups compared

Structure (SMILES) | anti-glucocorticoid receptor activity / glucocorticoid receptor binding [1] | serum cortisol versus control group [2] | rbPR/rbGR [4] | rabbit Biol. Act. (rabbit uterus) | also measured
CC(=O)O[C@]1(C(C)=O)CC[C@H]2[C@@H]3CCC4=CC(=O)CCC4=C3[C@@H](c3ccc(N(C)C)cc3)C[C@@]21C [CDB-2914, 17α-acetoxy-11β-(4-N,N-dimethylaminophenyl)-19-norpregna-4,9-dien-3,20-dione] | moderately active in glucocorticoid receptor binding |  |  |  | 
CC(=O)OCC(=O)[C@@]1(OC(C)=O)CCC2C3CCC4=CC(=O)CCC4=C3C(c3ccc(N(C)C)cc3)C[C@@]21C (stereo partly drawn) [CDB-4059, 21-acetoxy-17α-acetoxy-1,3-(4 N,N-dimethylaminophenyl)-19-norpregna-4,9-diene-3,20-dione] |  | significantly higher levels of serum cortisol |  |  | estrogenic, androgenic, anti-estrogenic, and anti-androgenic activities [3]: lack
COCC(=O)[C@@]1(OC(C)=O)CCC2C3CCC4=CC(=NO)CCC4=C3C(c3ccc(N(C)C)cc3)C[C@@]21C (stereo partly drawn) [CDB-4205, 3-hydroxyamino-2′-methoxy-17α-acetoxy-11β-(4 N,N-dimethylaminophenyl)-19-norpregna-4,9-diene-3,20-dione] |  |  | 1.99 | 1.00 | 
CC(=O)OCC(=O)[C@@]1(OC(C)=O)CCC2C3CCC4=CC(=NO)CCC4=C3C(c3ccc(N(C)C)cc3)C[C@@]21C (stereo partly drawn) [CDB-4206, 3-hydroxyamino-2′-acetoxy-17α-acetoxy-11β-(4 N,N-dimethylaminophenyl)-19-norpregna-4,9-diene-3,20-dione] |  |  | 1.44 | 0.68 | 
CCOCC(=O)[C@@]1(OC(C)=O)CCC2C3CCC4=CC(=NO)CCC4=C3C(c3ccc(N(C)C)cc3)C[C@@]21C (stereo partly drawn) [CDB-4226, 3-hydroxyamino-21-ethyloxy-17α-acetoxy-11β-(4 N,N-dimethylaminophenyl)-19-norpregna-4,9-diene-3,20-dione] |  |  | 1.51 | 0.54 | 
CC#C[C@]1(O)CC[C@H]2[C@@H]3CCC4=CC(=O)CCC4=C3[C@@H](c3ccc(N(C)C)cc3)C[C@@]21C [RU 486, 11β-[p-(Dimethylamino)phenyl]-17β-hydroxy-17-(1-propynyl)estra-4,9-dien-3-one, reference compound] | moderately active in glucocorticoid receptor binding | no significant difference in the levels of cortisol |  |  | differences in serum corticosterone between treatment groups [5]: No differences in serum corticosterone
